These results are taken from publication PMC6470885 (Molecules, 2019).

What all share (format): cell-based
In one test the test system is HIV-1 NL4-3 D36G (WT). The note with it: p24 ELISA, mean ± SD of three independent experiments. In general terms: An ELISA detects its analyte on a solid surface through an enzyme-linked reagent.
Another test has as its system HIV-1 NL4-3 (D36G) V38A. The note with it: T20-resistant (D36G) V38A; p24 ELISA; mean ± SD of three independent experiments.
For test [1], the system named is HIV-1 NL4-3 (D36G) V38A, N42D. The note with it: T20-resistant (D36G) V38A, p24 ELISA, mean ± SD of three independent experiments.
Description: For each well of a 96-well plate, 50 μL of a peptide were mixed with 50 μL of 100 × TCID50 (50% tissue culture infective doses) of HIV-1 live virus and incubated at 37 °C for 30 min. Afterwards, 2 × 10^4 MT-2 (for X4 virus) or CEMx174 5.25 M7 cells (for R5 virus) were added. After overnight culture, the supernatant was replaced with fresh RPMI-1640 medium containing 10% fetal bovine serum (FBS). After further culture at 37 °C for three days, 50 μL of the culture medium were collected and mixed with equal volume of 5% (v/v) Triton X-100. The p24 antigen, which represents HIV-1 quantity, was detected by ELISA. Briefly, the collected mixtures were added to a plate coated with anti-HIV Immune Globulin (HIVIG) from the NIH AIDS Reagent Program. Anti-p24 mAb 183, rabbit anti-mouse IgG-HRP (Dako, Glostrup, Denmark) and substrate 3,3,5,5-TMB (Sigma-Aldrich, New York, NY) were added and washed away sequentially. The absorbance at 450 nm (A450) was determined by a Multi-Detection Microplate Reader (Ultra 384, Tecan, Tokyo, Japan). IC50s were calculated using Calcusyn software (Biosoft, Ferguson, MO), and the lines of best fit were drawn using GraphPad Prism 8 software (La Jolla, CA).
Test [2] has as its system HIV-1 NL4-3 (D36G) V38E, N42S. The conditions noted are these: T20-resistant (D36G) V38E, p24 ELISA, mean ± SD of three independent experiments.
Description: (§1) Inhibitory activities of peptides on infection by HIV-1 X4 strain IIIB, R5 strain Bal, and T20-, T2635-, HP23-resistant strains were determined as previously described [42]. For each well of a 96-well plate, 50 μL of a peptide were mixed with 50 μL of 100 × TCID50 (50% tissue culture infective doses) of HIV-1 live virus and incubated at 37 °C for 30 min. Afterwards, 2 × 10^4 MT-2 (for X4 virus) or CEMx174 5.25 M7 cells (for R5 virus) were added. After overnight culture, the supernatant was replaced with fresh RPMI-1640 medium containing 10% fetal bovine serum (FBS). After further culture at 37 °C for three days, 50 μL of the culture medium were collected and mixed with equal volume of 5% (v/v) Triton X-100. The p24 antigen, which represents HIV-1 quantity, was detected by ELISA. Briefly, the collected mixtures were added to a plate coated with anti-HIV Immune Globulin (HIVIG) from the NIH AIDS Reagent Program. Anti-p24 mAb 183, rabbit anti-mouse IgG-HRP (Dako, Glostrup, Denmark) and substrate 3,3,5,5-TMB (Sigma-Aldrich, New York, NY) were added and washed away sequentially. The absorbance at 450 nm (A450) was determined by a Multi-Detection Microplate Reader (Ultra 384, Tecan, Tokyo, Japan). IC50s were calculated using Calcusyn software (Biosoft, Ferguson, MO), and the lines of best fit were drawn using GraphPad Prism 8 software (La Jolla, CA).
For test [3], the system named is HIV-1 NL4-3 (D36G) V38A, N42T. The conditions noted are these: T20-resistant (D36G) V38A, p24 ELISA, mean ± SD of three independent experiments.
Description: as §1
Test [4] deals with HIV-1 NL4-3 (D36G) N42T, N43K. The note with it: T20-resistant (D36G) N42T, p24 ELISA, mean ± SD of three independent experiments.
Description: as §1
In a further test the test system is HIV-1 LAI (WT). The conditions noted are these: p24 ELISA, mean ± SD of three independent experiments.
For another test, the system named is HIV-1 LAI A6V. The note with it: T2635-resistant A6V; p24 ELISA; mean ± SD of three independent experiments.
A further test relates to HIV-1 LAI Q66R. The note with it: T2635-resistant Q66R; p24 ELISA; mean ± SD of three independent experiments.
The test system of the next test is HIV-1 LAI K90E. The conditions noted are these: T2635-resistant K90E; p24 ELISA; mean ± SD of three independent experiments.
In another test the test system is HIV-1 LAI K154Q. The note with it: T2635-resistant K154Q; p24 ELISA; mean ± SD of three independent experiments.
The test system of a further test is HIV-1 LAI Q79E/N126K. The conditions noted are these: T2635-resistant Q79E/N126K; p24 ELISA; mean ± SD of three independent experiments.
The test system of a further test is HIV-1 LAI K90E/N126K. The conditions noted are these: T2635-resistant K90E/N126K; p24 ELISA; mean ± SD of three independent experiments.
The test system of another test is HIV-1 NL4-3 (WT). The conditions noted are these: p24 ELISA, mean ± SD of three independent experiments.
The subject of a further test is HIV-1 NL4-3 E49K. The conditions noted are these: HP23-resistant E49K; p24 ELISA; mean ± SD of three independent experiments.
The next test has as its system HIV-1 NL4-3 E49K/N126K. The conditions noted are these: HP23-resistant E49K/N126K; p24 ELISA; mean ± SD of three independent experiments.
The test system of test [5] is HIV-1 NL4-3 D36G/E49K/N126K. The note with it: HP23-resistant D36G/E49K/N126K; p24 ELISA; mean ± SD of three independent experiments.
Description: as §1
The test system of test [6] is HIV-1 NL4-3 L34S/D36G/E49K/E136G. The conditions noted are these: HP23-resistant L34S/D36G/E49K/E136G; p24 ELISA; mean ± SD of three independent experiments.
Description: as §1
Test [7] deals with cell-cell fusion between H9/IIIB cells and MT-2 cells. The experiment in a line: HIV-1-mediated cell-cell fusion (dye transfer assay). The note with it: Calcein AM dye transfer; peptide 37 °C 30 min, then MT-2 cells 2 h; read-out: IC50 against cell-cell fusion between H9/IIIB cells and MT-2 cells. The protocol:
A dye transfer assay was performed to detect HIV-1 Env-mediated cell-cell fusion as described previously. Briefly, for each well of a 96-well plate, 2 × 10^3 H9/IIIB cells labeled with the fluorescent reagent Calcein AM (Molecular Probes, Inc., Eugene, Oregon) were incubated with a CHR-peptide at 37 °C for 30 min. Afterwards, 10^4 MT-2 cells were added and incubated at 37 °C for 2 h. The fused and unfused Calcein-labeled H9/IIIB cells were counted under an inverted fluorescence microscope (Zeiss, Oberkochen, Germany). The IC50 values were calculated by using the Calcusyn computer program (Biosoft, Ferguson, MO).

Another test has as its system HIV-1IIIB (X4 virus). The protocol: To determine whether a peptide binds with the target cells in order to execute its anti-HIV-1 activity, cell wash and nonwash assays were performed as previously described. Briefly, 2 × 10^4 MT-2 cells were incubated with a peptide at 4 °C for 30 min, followed by washes of the pretreated cells to remove the unbound peptide (control: without washes) before addition of HIV-1IIIB (100 × TCID50). After culture at 37 °C overnight, the supernatant was replaced by fresh RPMI-1640 medium containing 10% FBS. The inhibitory activity of the cell-bound peptide in the wash group and free peptide in the nonwash group was determined as described above.

Residues, ends and D or L forms follow the SMILES beside them.

Description for HIV-1 LAI A6V: as §1
Description for HIV-1 LAI K154Q: as §1
Description for HIV-1 LAI K90E/N126K: as §1
Description for HIV-1 LAI Q66R: as §1
Description for HIV-1 LAI Q79E/N126K: as §1
Description for HIV-1 NL4-3 (WT): as §1
Description for HIV-1 NL4-3 D36G (WT): as §1
Description for HIV-1 NL4-3 E49K/N126K: as §1

For the compound `CC[C@H](C)[C@H](NC(=O)[C@H](CCC(N)=O)NC(=O)[C@H](CCC(N)=O)NC(=O)[C@H](CC(N)=O)NC(=O)[C@H](CCC(N)=O)NC(=O)[C@H](CO)NC(=O)[C@H](CCCCN)NC(=O)[C@H](CCCCN)NC(=O)[C@H](CC(C)C)NC(=O)[C@@H](NC(=O)[C@H](CCC(=O)O)NC(=O)[C@H](CCC(=O)O)NC(=O)[C@@H](NC(=O)[C@H](CCCCN)NC(=O)[C@H](CCCCN)NC(=O)[C@@H](NC(=O)[C@H](Cc1ccc(O)cc1)NC(=O)[C@H](CCC(=O)O)NC(=O)[C@H](CCC(=O)O)NC(=O)[C@@H](NC(=O)[C@H](CCCCN)NC(=O)[C@H](CCCCN)NC(=O)[C@H](CCC(=O)O)NC(=O)[C@H](Cc1c[nH]c2ccccc12)NC(=O)[C@H](CCC(=O)O)NC(=O)[C@H](CCC(=O)O)NC(=O)[C@H](Cc1c[nH]c2ccccc12)NC(=O)[C@@H](NC(=O)[C@H](CCSC)NC(=O)[C@@H](N)CCC(=O)O)[C@@H](C)O)[C@@H](C)CC)[C@@H](C)O)[C@@H](C)CC)[C@@H](C)CC)C(=O)N[C@@H](CC(=O)O)C(=O)N[C@@H](CC(C)C)C(=O)O` [HP23-E6-IDL] (H-EMTWEEWEKKIEEYTKKIEEILKKSQNQQIDL-OH), the IC50 in the test with HIV-1 NL4-3 D36G (WT) is 0.912 ± 0.029 nM; in the test with HIV-1 NL4-3 (D36G) V38A, 0.647 ± 0.024 nM; in test [1], 1.54 ± 0.253 nM; in [2], 0.748 ± 0.012 nM; in test [3] it was 0.838 ± 0.031 nM; in test [4], 0.941 ± 0.019 nM. Further, the IC50 was 0.932 ± 0.059 nM in the test on HIV-1 LAI (WT); 0.349 ± 0.019 nM with HIV-1 LAI A6V; 0.496 ± 0.168 nM with HIV-1 LAI Q66R; 1.42 ± 0.242 nM in the test with HIV-1 LAI K90E; 1.25 ± 0.249 nM in the test with HIV-1 LAI K154Q; 1.31 ± 0.059 nM in the test on HIV-1 LAI Q79E/N126K. For the same compound, the IC50 in the test with HIV-1 LAI K90E/N126K is 0.842 ± 0.066 nM; in the test with HIV-1 NL4-3 (WT), 0.699 ± 0.025 nM; with HIV-1 NL4-3 E49K, 2.04 ± 0.126 nM; in the test on HIV-1 NL4-3 E49K/N126K, 2.56 ± 0.318 nM; in [5] it was 3.14 ± 0.4 nM; in test [6] it was 4.94 ± 1.1 nM. The IC50 was 1.14 nM in [7] and 2.4 nM in the test with HIV-1IIIB (X4 virus).
